Experimental data: US9447083B2, “N-acylhydrazone derivatives for selective T cell inhibitor and anti-lymphoid malignancy drug” (CHONG KUN DANG PHARMACEUTICAL CORP., priority 2012, dated 2016)

System: Jurkat T cells
Assay: Pro-apoptotic activity on Jurkat T cells (FITC-Annexin V / 7-AAD flow cytometry)
Format: cell-based
Details: Homo sapiens, 72 hours, cells stained with FITC-Annexin V and 7-AAD among total cells, read-out: Cell Apoptosis Effect to Jurkat T Cell (% in 5 μM)
Method: In order to investigate the effects of the prepared compounds, the apoptosis-inducing effects of the compounds on human T cell acute lymphoblastic leukemia cell line, Jurkat T cells, were evaluated in the following manner.
Jurkat T cells cultured in RPMI medium containing 10% fetal bovine serum (FBS) were collected and stained with trypan blue (Sigma). […] Then, the cells were centrifuged at 1200 rpm at room temperature for 5 minutes and re-suspended in 10% FBS-containing RPMI medium at a concentration of 1.5×10^5 cells/mL. 200 μL of the cell suspension was dispensed into each well of a flat bottom 96-well plate (Costar). Then, the cells were treated with 10 μL of the diluted compounds in RPMI medium at final concentrations of […] or 5 μM, and incubated in a 5% CO2 incubator at 37° C. for 72 hours. In a vehicle control group, the cells were treated with 10 μL of RPMI medium containing 1% of dimetylsulfoxide (DMSO, Sigma). The incubated cells were harvested, put into 5-mL FACS tubes (BD Falcon), washed with 1 mL of phosphate buffered saline (PBS), and then re-suspended in 0.1 mL of binding buffer (10 mM Hepes-NaOH, pH 7.4, 140 mM NaCl, […] CaCl2). The suspended cells were stained with fluorescein isothiocyanate (FITC)-Annexin V (BD Biosciences) and 7-amino-actinomycin D (7-AAD, e-Biosciences) at room temperature for 15 minutes. The stained cells were suspended in 0.3 mL of binding buffer and analyzed by a flow cytometer. Apoptosis was determined by the ratio (%) of cells stained with FITC-Annexin V and 7-AAD among the total cells (see Tables 10 and 11).

In order of falling cytotoxicity at 5 µM:
1. Cc1cc(C)c(OCC(=O)N/N=C/c2ccc3cc[nH]c3c2)c(-c2ccncc2)c1 [Compound 217, (E)-N′-((1H-indol-6-yl)methylene)-2-(2,4-dimethyl-6-(pyridin-4-yl)phenoxy)acetohydrazide]  100%
2. Cc1cc(-c2cccnc2)cc(C)c1OCC(=O)N/N=C/c1cccc2[nH]ccc12 [Compound 137, (E)-N′-((1H-indol-4-yl)methylene)-2-(2,6-dimethyl-4-(pyridin-3-yl)phenoxy)acetohydrazide]  100%
3. O=C(COc1ccccc1-c1cccnc1)N/N=C/c1cccc2[nH]ccc12 [Compound 146, (E)-N′-((1H-indol-4-yl)methylene)-2-(2-(pyridin-3-yl)phenoxy)acetohydrazide]  100%
4. Cc1cc(C)c(OCC(=O)N(C)/N=C/c2cccc3c2ccn3C)c(C)c1 [Compound 164, (E)-2-(mesityloxy)-N-methyl-N′-((1-methyl-1H-indol-4-yl)methylene)acetohydrazide]  100%
5. Cc1cc(C)c(OCC(=O)N(COC(=O)CN(C)C)/N=C/c2cccc3[nH]ccc23)c(C)c1 [Compound 238, (E)-(2-((1H-indol-4-yl)methylene)-1-(2-(mesityloxy)acetyl)hydrazinyl)methyl 2-(dimethylamino)acetate]  100%
6. Cc1cc(C)c(OCC(=O)N/N=C/c2ccc3snnc3c2)c(C)c1 [Compound 206]  100%
7. CC(C)c1cccc(C(C)C)c1OCC(=O)N/N=C/c1cccc2[nH]ccc12 [Compound 121, (E)-N′-((1H-indol-4-yl)methylene)-2-(2,6-diisopropylphenoxy)acetohydrazide]  100%
8. Cc1cc(C)c(SCC(=O)N/N=C/c2c[nH]c3ccccc23)c(C)c1 [Compound 158, (E)-N′-((1H-indol-3-yl)methylene)-2-(mesitylthio)acetohydrazide]  100%
9. Cc1cc(C)c(OCC(=O)N/N=C/c2cc3ccccc3[nH]2)c(C)c1 [Compound 109, (E)-N′-((1H-indol-2-yl)methylene)-2-(mesityloxy)acetohydrazide]  100%
10. Cc1cc(C)c(OCC(=O)N/N=C/c2ccc3cc[nH]c3c2)c(-c2ccoc2)c1 [Compound 218, (E)-N′-((1H-indol-6-yl)methylene)-2-(2-(furan-3-yl)-4,6-dimethylphenoxy)acetohydrazide]  100%
11. Cc1cc(C#N)cc(C)c1OCC(=O)N/N=C/c1ccc2cc[nH]c2c1 [Compound 237, (E)-N′-((1H-indol-6-yl)methylene)-2-(4-cyano-2,6-dimethylphenoxy)acetohydrazide]  100%
12. Cc1cc(C)c(SCC(=O)N/N=C/c2cccc3[nH]ccc23)c(C)c1 [Compound 147, (E)-N′-((1H-indol-4-yl)methylene)-2-(mesitylthio)acetohydrazide]  100%
13. Cc1cc(Br)cc(C)c1OCC(=O)N/N=C/c1ccc2cc[nH]c2c1 [Compound 133, (E)-N′-((1H-indol-6-yl)methylene)-2-(4-bromo-2,6-dimethylphenoxy)acetohydrazide]  100%
14. Cc1cc(Br)cc(C)c1OCC(=O)N/N=C/c1ccc2[nH]ccc2c1 [Compound 092, (E)-N′-((1H-indol-5-yl)methylene)-2-(4-bromo-2,6-dimethylphenoxy)acetohydrazide]  100%
15. Cc1cc(-c2cncnc2)cc(C)c1OCC(=O)N/N=C/c1cccc2[nH]ccc12 [Compound 149, (E)-N′-((1H-indol-4-yl)methylene)-2-(2,6-dimethyl-4-(pyrimidin-5-yl)phenoxy)acetohydrazide]  100%
16. O=C(COc1cccnc1Cl)N/N=C/c1cccc2[nH]ccc12 [Compound 196, (E)-N′-((1H-indol-4-yl)methylene)-2-(2-chloropyridin-3-yloxy)acetohydrazide]  100%
17. Cc1cc(C)c(OCC(=O)N/N=C/c2ccc3c(Br)c[nH]c3c2)c(C)c1 [Compound 256]  100%
18. Cc1cc(C(C)(C)C)c(OCC(=O)N/N=C/c2cccc3[nH]ccc23)c(C(C)(C)C)c1 [Compound 127, (E)-N′-((1H-indol-4-yl)methylene)-2-(2,6-di-tert-butyl-4-methylphenoxy)acetohydrazide]  100%
19. Cc1cc(C)c(OCC(=O)N(CCN2CCOCC2)/N=C/c2ccc3cc[nH]c3c2)c(C)c1 [Compound 198]  100%
20. Cc1cc(-c2cnc(N)nc2)cc(C)c1OCC(=O)N/N=C/c1ccc2cc[nH]c2c1 [Compound 152, (E)-N′-((1H-indol-6-yl)methylene)-2-(4-(2-aminopyrimidin-5-yl)-2,6-dimethylphenoxy)acetohydrazide]  90%
21. Cc1ccccc1OCC(=O)N/N=C/c1ccc2cc[nH]c2c1 [Compound 034]  90%

Same assay, conditions: Homo sapiens, 72 hours, cells stained with FITC-Annexin V and 7-AAD among total cells, read-out: Jurkat T Cell Apoptosis (% in 5 μM)

In order of falling cytotoxicity at 5 µM:
1. Cc1cc(OCC(=O)N/N=C/c2cccc3[nH]ccc23)nc(C)n1 [Compound 301, (E)-N′-((1H-indol-4-yl)methylene)-2-(2,6-dimethylpyrimidin-4-yloxy)acetohydrazide]  100%
2. O=C(COc1cccnc1-c1ccoc1)N/N=C/c1ccc2cc[nH]c2c1 [Compound 310, (E)-N′-((1H-indol-6-yl)methylene)-2-(2-(furan-3-yl)pyridin-3-yloxy)acetohydrazide]  100%
3. O=C(COc1cccnc1N1CCCC1)N/N=C/c1ccc2cc[nH]c2c1 [Compound 331, (E)-N′-((1H-indol-6-yl)methylene)-2-((2-(pyrrolidin-1-yl)pyridin-3-yl)oxy)acetohydrazide]  100%
4. Cc1cc(C)c(OCC(=O)N/N=C/c2cccc3[nH]ccc23)c(-c2ccoc2)c1 [Compound 333, (E)-N′-((1H-indol-4-yl)methylene)-2-(2-(furan-3-yl)-4,6-dimethylphenoxy)acetohydrazide]  100%
5. Cc1cc(F)ccc1OCC(=O)N/N=C/c1ccc2cc[nH]c2c1 [Compound 291, (E)-N′-((1H-indol-6-yl)methylene)-2-(4-fluoro-2-methylphenoxy)acetohydrazide]  100%
6. Cc1cccc(C2CCOC2)c1OCC(=O)N/N=C/c1cccc2[nH]ccc12 (stereo not drawn) [Compound 312, (E)-N′-((1H-indol-4-yl)methylene)-2-(2-methyl-6-(tetrahydrofuran-3-yl)phenoxy)acetohydrazide]  100%
7. Cc1ncccc1OCC(=O)N(CO)/N=C/c1cccc2[nH]ccc12 [Compound 289]  100%
8. Cc1cc(F)cc(C2CCOC2)c1OCC(=O)N/N=C/c1cccc2[nH]ccc12 (stereo not drawn) [Compound 379, (E)-N′-((1H-indol-4-yl)methylene)-2-(4-fluoro-2-methyl-6-(tetrahydrofuran-3-yl)phenoxy)acetohydrazide]  100%
9. Cc1cc(C)c(OCC(=O)N/N=C/c2cccc3[nH]ccc23)c(-c2ccco2)c1 [Compound 317, (E)-N′-((1H-indol-4-yl)methylene)-2-(2-(furan-2-yl)-4,6-dimethylphenoxy)acetohydrazide]  100%
10. Cc1cc(C2CCOC2)cc(C)c1OCC(=O)N/N=C/c1ccc2cc[nH]c2c1 (stereo not drawn) [Compound 323, (E)-N′-((1H-indol-6-yl)methylene)-2-(2,6-dimethyl-4-(tetrahydrofuran-3-yl)phenoxy)acetohydrazide]  100%
11. Cc1cc(C)c(OCC(=O)N/N=C/c2ccc3cc[nH]c3c2)c(-c2ccco2)c1 [Compound 318]  100%
12. CCc1nc(C)ccc1OCC(=O)N/N=C/c1cccc2[nH]ccc12 [Compound 329, (E)-N′-((1H-indol-4-yl)methylene)-2-((2-ethyl-6-methylpyridin-3-yl)oxy)acetohydrazide]  100%
13. Cc1cc(C)c(OCC(=O)N/N=C/c2cccc3[nH]ccc23)c(C2CCOC2)c1 (stereo not drawn) [Compound 320, (E)-N′-((1H-indol-4-yl)methylene)-2-(2,4-dimethyl-6-(tetrahydrofuran-3-yl)phenoxy)acetohydrazide]  100%
14. Cc1cccc(-c2ccoc2)c1OCC(=O)N/N=C/c1ccc2cc[nH]c2c1 [Compound 313, (E)-N′-((1H-indol-6-yl)methylene)-2-(2-(furan-3-yl)-6-methylphenoxy)acetohydrazide]  100%
15. O=C(COc1cccc(-c2cccnc2)c1)N/N=C/c1cccc2[nH]ccc12 [Compound 358, (E)-N′-((1H-indol-4-yl)methylene)-2-(3-(pyridin-3-yl)phenoxy)acetohydrazide]  100%
16. Cc1cccc(-c2ccoc2)c1OCC(=O)N/N=C/c1cccc2[nH]ccc12 [Compound 314, (E)-N′-((1H-indol-4-yl)methylene)-2-(2-(furan-3-yl)-6-methylphenoxy)acetohydrazide]  100%
17. Cc1cccc(OCC(=O)N/N=C/c2ccc3cc[nH]c3c2)c1C [Compound 327]  95%
18. N#Cc1cc(Br)ccc1OCC(=O)N/N=C/c1cccc2[nH]ccc12 [Compound 330, (E)-N′-((1H-indol-4-yl)methylene)-2-(4-bromo-2-cyanophenoxy)acetohydrazide]  80%
